From PubChem BioAssay (NCI)
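Following 48 hours of exposure in 96-well plates, responses at five concentrations were used to interpolate endpoints linearly. Definition used: TGI = concentration required for complete inhibition of growth.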

Tests used:
Experiment in all cases: inhibition of tumour cell growth, NCI panel, 48 h
[1] = system: UACC-62 melanoma
[2] = system: SNB-75 CNS
[3] = system: SF-539 CNS
[4] = system: HCC-2998 colon
[5] = system: K-562 leukemia
[6] = system: SF-268 CNS
[7] = system: T-47D breast
[8] = system: OVCAR-3 ovarian
[9] = system: NCI/ADR-RES ovarian
[10] = system: NCI-H522 lung
[11] = system: A498 renal
[12] = system: SW-620 colon
[13] = system: LOX IMVI melanoma
[14] = system: NCI-H23 lung
[15] = system: MDA-N
[16] = system: HOP-62 NSCLC
[17] = system: A549 NSCLC
[18] = system: HOP-92 NSCLC
[19] = system: IGROV1 ovarian
[20] = system: MALME-3M melanoma
[21] = system: NCI-H460 lung
[22] = system: UACC-257 melanoma
[23] = system: SK-MEL-28 melanoma
[24] = system: COLO 205 colon
[25] = system: SK-MEL-5 melanoma
[26] = system: OVCAR-8 ovarian
[27] = system: OVCAR-4 ovarian
[28] = system: MDA-MB-435
[29] = system: UO-31 renal
[30] = system: SNB-19 CNS
[31] = system: HCT-15 colon
[32] = system: HCT-116 colon
[33] = system: HS 578T breast
[34] = system: NCI-H226 lung
[35] = system: CAKI-1 renal
[36] = system: SF-295 CNS
[37] = system: RPMI-8226 leukemia
[38] = system: MDA-MB-231 breast
[39] = system: ACHN renal
[40] = system: KM12 colon
[41] = system: MOLT-4 leukemia
[42] = system: HT29 colon
[43] = system: OVCAR-5 ovarian
[44] = system: 786-0 renal
[45] = system: EKVX NSCLC
[46] = system: RXF 393 renal
[47] = system: U251 CNS
[48] = system: BT-549 breast
[49] = system: CCRF-CEM leukemia
[50] = system: M14 melanoma
[51] = system: MCF7 breast
[52] = system: TK-10 renal
[53] = system: PC-3 prostate
[54] = system: SK-OV-3 ovarian
[55] = system: SK-MEL-2 melanoma
[56] = system: HL-60(TB) leukemia
[57] = system: DU-145 prostate
[58] = system: SN12C renal

COC(=O)Cc1cc2c(cc1C(=O)c1ccc(N)cc1)OCO2
TGI [1]: > 55 µM
TGI [2]: 5.84 µM
TGI [3]: > 27.2 µM
TGI [4]: 3.58 µM
TGI [5]: > 100 µM
TGI [6]: > 30.7 µM
TGI [7]: > 100 µM
TGI [8]: 6.99 µM
TGI [9]: 15.3 µM
TGI [10]: 1.01 µM
TGI [11]: > 27.4 µM
TGI [12]: > 100 µM
TGI [13]: > 100 µM
TGI [14]: > 100 µM
TGI [15]: 1.43 µM
TGI [16]: > 100 µM
TGI [17]: > 77.8 µM
TGI [18]: 61 µM
TGI [19]: 13 µM
TGI [20]: > 100 µM
TGI [21]: > 100 µM
TGI [22]: > 100 µM
TGI [23]: > 100 µM
TGI [24]: 10 µM
TGI [25]: 4.49 µM
TGI [26]: > 34.5 µM
TGI [27]: > 100 µM
TGI [28]: 0.667 µM
TGI [29]: > 100 µM
TGI [30]: > 82.8 µM
TGI [31]: > 37.7 µM
TGI [32]: > 45.9 µM
TGI [33]: > 25.4 µM
TGI [34]: > 100 µM
TGI [35]: > 100 µM
TGI [36]: 5.33 µM
TGI [37]: 6.08 µM
TGI [38]: > 30.9 µM
TGI [39]: > 100 µM
TGI [40]: > 100 µM
TGI [41]: 33.8 µM
TGI [42]: 3.99 µM
TGI [43]: 83.3 µM
TGI [44]: > 100 µM
TGI [45]: > 100 µM
TGI [46]: > 23.9 µM
TGI [47]: > 100 µM
TGI [48]: > 20.3 µM
TGI [49]: 8 µM
TGI [50]: > 100 µM
TGI [51]: > 100 µM
TGI [52]: > 100 µM
TGI [53]: > 27.2 µM
TGI [54]: > 29.2 µM
TGI [55]: 5.36 µM
TGI [56]: > 26.2 µM
TGI [57]: > 39.1 µM
TGI [58]: > 100 µM

C=C1CC(C)(COc2ccc3c(C)c(C)c(=O)oc3c2C)OC1=O (stereo not given)
TGI [1]: 2.74 µM
TGI [2]: 15.9 µM
TGI [3]: 7.04 µM
TGI [4]: 4.49 µM
TGI [5]: 4.4 µM
TGI [6]: 15.7 µM
TGI [7]: 3.09 µM
TGI [8]: 14.2 µM
TGI [9]: 13.8 µM
TGI [10]: 4.28 µM
TGI [11]: 4.26 µM
TGI [12]: 3.92 µM
TGI [13]: 2.91 µM
TGI [14]: 5.25 µM
TGI [15]: 4.61 µM
TGI [16]: 28.8 µM
TGI [17]: 21 µM
TGI [18]: 2.76 µM
TGI [19]: 3.35 µM
TGI [20]: 5.53 µM
TGI [21]: 19.6 µM
TGI [22]: 6.98 µM
TGI [23]: 5.08 µM
TGI [24]: 2.75 µM
TGI [25]: 3.73 µM
TGI [26]: 7.69 µM
TGI [27]: 19.3 µM
TGI [28]: 11.2 µM
TGI [29]: 22.2 µM
TGI [30]: 30.4 µM
TGI [31]: 4.54 µM
TGI [32]: 2.41 µM
TGI [33]: 15.1 µM
TGI [34]: 32.6 µM
TGI [35]: 6.26 µM
TGI [36]: 16.1 µM
TGI [37]: 2.59 µM
TGI [38]: 7.8 µM
TGI [39]: 7.45 µM
TGI [40]: 19.6 µM
TGI [41]: 4.13 µM
TGI [42]: 5.39 µM
TGI [43]: 16.2 µM
TGI [44]: 3.24 µM
TGI [45]: 15.1 µM
TGI [47]: 18.9 µM
TGI [48]: 3.07 µM
TGI [49]: 3.2 µM
TGI [50]: 10.7 µM
TGI [51]: 2.84 µM
TGI [52]: 3.08 µM
TGI [53]: 7.08 µM
TGI [54]: 12.2 µM
TGI [55]: 5.58 µM
TGI [56]: 0.954 µM
TGI [57]: 7.08 µM
TGI [58]: 4.28 µM
